{
  "source": "patent US7456225B1",
  "about": "“Liver protection compounds of the cyclohexenone type from Antrodia camphorata” (Golden Biotechnology Corporation, priority 2007, dated 2008)",
  "assay_type_in_all_cases": "in vivo, Sprague-Dawley (SD) rats",
  "key": {"[1]": {"assay": "Body weights of rats in CCl4 liver injury model", "conditions": "CCl4-treated rats, stomach tube, 8th week", "experimental": "The animal model was performed with five-week-old Sprague-Dawley (SD) rats purchased from BioLasco Taiwan Co., Ltd. Healthy rats weighing 220-270 g were chosen for experiment after observing for 2 weeks in the laboratory animal room. The rats were randomly divided into 6 groups (12 rats/group): normal (gp. A); control groups including model control (gp. B) and positive control (gp. C, animals receiving silymarin); treatment groups including animals receiving 300 mg/kg of cyclohexenone (gp. D), 1000 mg/kg of cyclohexenone (gp. E), and 3000 mg/kg of cyclohexenone (gp. F), as indicated in Table 1. Only normal group was not poisoned with CCl4. The body weights were recorded to calculate the dosage. […] It helps to remove toxins from liver cells by either neutralizing the toxicity of toxic compounds or competing with the binding sites in liver. It is a potent antioxidant, protects the liver from free radicals. It has been widely studied for treating various types of liver injury in animals and clinical trials. The beneficial effects on liver protection have made silymarin a good medicine for liver diseases and a drug in positive control group for the animal model of liver injury. Rats in normal group (group A) were fed with corn oil (Sigma chemical co.) by means of stomach tubes. Carbon tetrachloride (Shimakyu, Osaka, Japan) was administered to groups B to F via stomach tubes twice weekly (every Tuesday and Thursday afternoon) for 8 weeks, at a dose of 2 ml/kg of body weight, diluted with corn oil. Silymarin was prepared with saline in an amount of 200 mg/kg of body weight and was fed to rats of group C via a stomach tube. Cyclohexenone prepared from example 1 was mixed with saline, and fed in the amounts of 300 mg/kg, 1000 mg/kg and 3000 mg/kg of body weight to rats of group D to F via stomach tubes. The total feeding volume was estimated in the ratio of 10 ml/kg of body weight to groups C to F five days a week (every morning) for 8 weeks. The body weights of rats and the amounts of food intake in rats for each group were shown in FIG. 1 and FIG. 2, respectively. […]"}, "[2]": {"test_system": "CCl4-induced liver injury in rats", "assay": "Pathological changes of the liver surface observed with naked eyes", "conditions": "CCl4-treated rats, 8 weeks", "experimental": "The animal model was performed with five-week-old Sprague-Dawley (SD) rats purchased from BioLasco Taiwan Co., Ltd. Healthy rats weighing 220-270 g were chosen for experiment after observing for 2 weeks in the laboratory animal room. The rats were randomly divided into 6 groups (12 rats/group): normal (gp. A); control groups including model control (gp. B) and positive control (gp. C, animals receiving silymarin); treatment groups including animals receiving 300 mg/kg of cyclohexenone (gp. D), 1000 mg/kg of cyclohexenone (gp. E), and 3000 mg/kg of cyclohexenone (gp. F), as indicated in Table 1. Only normal group was not poisoned with CCl4. The body weights were recorded to calculate the dosage. […] It helps to remove toxins from liver cells by either neutralizing the toxicity of toxic compounds or competing with the binding sites in liver. It is a potent antioxidant, protects the liver from free radicals. It has been widely studied for treating various types of liver injury in animals and clinical trials. […]\nThe pathological changes of the liver surface were examined with naked eyes when the liver was taken out from rats, and then tissue sections were made. […] The pathological changes of liver injury were evaluated under light microscope (Opticphot-2, Nikon, Tokyo, Japan) after stained with the abovementioned solution. […]"}, "[3]": {"test_system": "CCl4 induced liver injury in rats", "assay": "Serum indicators of liver function (ALT, AST, cholesterol)", "conditions": "CCl4-treated rats, 8 weeks", "experimental": "The animal model was performed with five-week-old Sprague-Dawley (SD) rats purchased from BioLasco Taiwan Co., Ltd. Healthy rats weighing 220-270 g were chosen for experiment after observing for 2 weeks in the laboratory animal room. The rats were randomly divided into 6 groups (12 rats/group): normal (gp. A); control groups including model control (gp. B) and positive control (gp. C, animals receiving silymarin); treatment groups including animals receiving 300 mg/kg of cyclohexenone (gp. D), 1000 mg/kg of cyclohexenone (gp. E), and 3000 mg/kg of cyclohexenone (gp. F), as indicated in Table 1. Only normal group was not poisoned with CCl4. The body weights were recorded to calculate the dosage. […] It helps to remove toxins from liver cells by either neutralizing the toxicity of toxic compounds or competing with the binding sites in liver. It is a potent antioxidant, protects the liver from free radicals. It has been widely studied for treating various types of liver injury in animals and clinical trials. The beneficial effects on liver protection have made silymarin a good medicine for liver diseases and a drug in positive control group for the animal model of liver injury.\nRats in normal group (group A) were fed with corn oil (Sigma chemical co.) by means of stomach tubes. Carbon tetrachloride (Shimakyu, Osaka, Japan) was administered to groups B to F via stomach tubes twice weekly (every Tuesday and Thursday afternoon) for 8 weeks, at a dose of 2 ml/kg of body weight, diluted with corn oil. Silymarin was prepared with saline in an amount of 200 mg/kg of body weight and was fed to rats of group C via a stomach tube. Cyclohexenone prepared from example 1 was mixed with saline, and fed in the amounts of 300 mg/kg, 1000 mg/kg and 3000 mg/kg of body weight to rats of group D to F via stomach tubes. The total feeding volume was estimated in the ratio of 10 ml/kg of body weight to groups C to F five days a week (every morning) for 8 weeks. The body weights of rats and the amounts of food intake in rats for each group were shown in FIG. 1 and FIG. 2, respectively.\nAll rats were sacrificed at the end of the 8th week of experiment, blood samples were collected from abdominal aorta for assessing liver biochemical parameters. Five ml of blood were transferred to a tube and centrifuged at 775×g for 15 min. 0.5 ml of serum was analyzed on an Express plus automatic clinical chemistry analyzer (Chiron diagnostics corporation, OH, USA) with commercial kits of ALT (Bayer diagnostics, Cat No. E36941), AST (Bayer diagnostics, Cat No. E37041) and cholesterol (Bayer diagnostics, Cat No. E33940). All values are expressed as mean ±SD, which were evaluated using One-way Analysis of Variance. Those with significant differences were further tested with the Least Significant Difference Test (LSD) or Student t-test to compare cyclohexenone treatment groups and normal groups, positive control and model groups. P<0.05 was selected as criterion for statistical significance in all cases."}, "[4]": {"conditions": "cyclohexenone 1000 mg/kg, listed as cyclohexenone"}},
  "data": [
    {"compound": "COC1=C(OC)C(O)C(C/C=C(\\C)CC/C=C(\\C)CCC=C(C)C)C(C)C1=O", "note": "(stereo not shown) [Cyclohexenone from Antrodia camphorata, 4-hydroxy-2,3-dimethoxy-6-methyl-5(3,7,11-trimethyl-dodeca-2,6,10-trienyl)-cyclohex-2-enone]", "values": [
      {"measurement": "body weight", "setting": "[1]; cyclohexenone 300 mg/kg", "result": 386.6, "unit": "g"},
      {"measurement": "body weight", "setting": "[1]; cyclohexenone 1000 mg/kg", "result": 365.1, "unit": "g"},
      {"measurement": "body weight", "setting": "[1]; cyclohexenone 3000 mg/kg", "result": 355.0, "unit": "g"},
      {"measurement": "swelling and pathological conditions of liver surface (naked eyes)", "setting": "[2]; cyclohexenone 3000 mg/kg", "result": "slightest condition in swelling and pathological conditions"},
      {"measurement": "extents of liver pathological changes (liver surface, naked eyes)", "setting": "[2]; various amounts of cyclohexenone (300, 1000, 3000 mg/kg), vs model group", "result": "significantly weaker than that of model group"},
      {"measurement": "ALT", "setting": "[3]; cyclohexenone 300 mg/kg", "result": "226.6 ± 138.7", "unit": "a U/L"},
      {"measurement": "AST", "setting": "[3]; cyclohexenone 300 mg/kg", "result": "323.4 ± 189.0", "unit": "U/L"},
      {"measurement": "Cholesterol", "setting": "[3]; cyclohexenone 300 mg/kg", "result": "63.7 ± 15.1", "unit": "mg/dL"},
      {"measurement": "ALT", "setting": "[3]; cyclohexenone 1000 mg/kg", "result": "181.7 ± 78.4", "unit": "a U/L"},
      {"measurement": "AST", "setting": "[3]; cyclohexenone 1000 mg/kg", "result": "283.2 ± 144.2", "unit": "U/L"},
      {"measurement": "Cholesterol", "setting": "[3]; cyclohexenone 1000 mg/kg", "result": "69.6 ± 14.8", "unit": "mg/dL"},
      {"measurement": "ALT", "setting": "[3]; [4]", "result": "181.7±78.4", "unit": "U/L"},
      {"measurement": "AST", "setting": "[3]; [4]", "result": "283.2±144.2", "unit": "U/L"},
      {"measurement": "ALT", "setting": "[3]; cyclohexenone 3000 mg/kg", "result": "206.0 ± 98.4", "unit": "a U/L"},
      {"measurement": "AST", "setting": "[3]; cyclohexenone 3000 mg/kg", "result": "311.7 ± 99.6", "unit": "U/L"},
      {"measurement": "Cholesterol", "setting": "[3]; cyclohexenone 3000 mg/kg", "result": "62.1 ± 16.2", "unit": "mg/dL"}
    ]}
  ]
}
